In brackets after ≈: the same amount, converted by molar mass.
Assay: physchem
Settings: 20 °C, water, thermodynamic from solid

OCCOCCN1CCN(C2=Nc3ccccc3Sc3ccccc32)CC1 [11-[4-[2-(2-hydroxyethoxy)ethyl]-1-piperazinyl]dibenzo[b,f][1,4]-thiazepine] showed a solubility thermodynamic of 3290 µg/mL (≈ 8.58 mM).

— patent EP0907364B1, “SUSTAINED RELEASE PHARMACEUTICAL COMPOSITIONS COMPRISING A DIBENZOTHIAZEPINE DERIVATIVE” (AstraZeneca AB, priority 1996, dated 1997)
